Assay results reported in doi:10.64898/2025.12.30.696991 (bioRxiv, 2026).

Test system: intracellular MDR S. Typhimurium (ATCC 700408)
Test: Intracellular gentamicin protection assay, MDR S. Typhimurium in RAW 264.7 macrophages
Assay type: cell-based, Salmonella enterica serovar Typhimurium
Conditions: Salmonella enterica, RAW264.7, Table 2; intracellular burden 50% in RAW 264.7
Experimental: (§1) RAW 264.7 cells were seeded at 3×10^4 cells/well in a 96-well plate and maintained at 37°C for 20 hours. A single colony of susceptible or MDR S. Typhimurium was inoculated and cultured overnight in nutrient broth and diluted to obtain a log-phase culture stock with an adjusted optical density (OD600) of 0.6, equivalent to a concentration of 3×10^8 CFU/mL (determined by a prior colony forming units (CFU) assay). The bacterial stock solution was resuspended in antibiotic-free DMEM supplemented with 2% FBS and further diluted to obtain a bacterial concentration of 3×10^6 CFU/mL. Cell media was aspirated and replaced with 100 μL of bacteria culture in DMEM resulting in a multiplicity of infection (MOI) of 10. The cells underwent infection for two hours or 30 minutes at 37°C with susceptible or MDR bacteria, respectively. This differential infection incubation period was based on strain-specific infectivity potential. […] Media was aspirated from the wells and replaced with DMEM (2% FBS) containing 100 μg/mL gentamicin for one hour at 37°C to eliminate extracellular bacteria. Following this step, cells were washed once with media and treated for 22 hours with analogs at varying concentrations (0.1 – 5 μM) in DMEM (2% FBS, no pen/strep) containing 10 μg/mL gentamicin to suppress extracellular bacterial growth. AR-12 treated, uninfected, and DMSO-vehicle treated cells were included as controls. Post treatment, cells were washed with PBS and lysed with 0.1% Triton-X100, a concentration sufficient to disrupt host cells while preserving bacterial integrity. The lysates containing intracellular bacteria were serially diluted and enumerated by using drop-plate assay as described previously.([27]) Agar plates were incubated overnight at 37°C before CFU from each dilution were counted.
Supplemental Figure 2: Evaluating lead compound efficacy against MDR S. Typhimurium. A) Schematic illustrating gentamicin protection assay. Day 0 RAW 264.7 macrophages are seeded into 96-well plate and STM culture is inoculated. Day 1: RAW 264.7 cells are infected with STM at an MOI of 10 for 30 min, washed, then treated with gentamicin for 1hr to remove extracellular bacteria. AR-12 analogs added to infected cells for 22hr incubation. Day 2: RAWs are washed, lysed, diluted and then dropped onto agar plates. Day 3: colony forming units (CFUs) counted. B) Dose effect curves of intracellular MDR S. Typhimurium viability from RAW 264.7 macrophages after 22hr treatment with hit compounds. CFUs normalized to untreated controls. Parental compound AR-12 included for comparison.

IC50 [nM]	Compound
120	Fc1cccc(CN2CCC(Nc3ccc(-n4nc(C(F)(F)F)cc4C4CCCCC4)cc3)CC2)c1 [Compound 322]
200	N#Cc1ccc(CN2CCC(Nc3ccc(-n4nc(C(F)(F)F)cc4C4CCCCC4)cc3)CC2)cc1 [Compound 323]

Compound	IC50 [nM]
NCC(=O)Nc1ccc(-n2nc(C(F)(F)F)cc2-c2ccc3c(ccc4ccccc43)c2)cc1 [AR-12, reference compound]	340

Same assay, conditions: Table 2; LC50 / IC50

Compound	MDR Selectivity
NCC(=O)Nc1ccc(-n2nc(C(F)(F)F)cc2-c2ccc3c(ccc4ccccc43)c2)cc1 [AR-12, reference compound]	24.4
Fc1cccc(CN2CCC(Nc3ccc(-n4nc(C(F)(F)F)cc4C4CCCCC4)cc3)CC2)c1 [Compound 322]	372
N#Cc1ccc(CN2CCC(Nc3ccc(-n4nc(C(F)(F)F)cc4C4CCCCC4)cc3)CC2)cc1 [Compound 323]	160

Same assay, conditions: defined as 2-fold difference MDR IC50 / Susc IC50

difference of IC50 between susceptible and MDR S. Typhimurium	Compound
strongly different	N#Cc1ccc(CN2CCC(Nc3ccc(-n4nc(C(F)(F)F)cc4C4CCCCC4)cc3)CC2)cc1 [Compound 323]

Test system: intracellular susceptible S. Typhimurium (ATCC 700720)
Test: Intracellular gentamicin protection assay, susceptible S. Typhimurium in RAW 264.7 macrophages
Assay type: cell-based, Salmonella enterica serovar Typhimurium
Conditions: LC50 / IC50, strain not specified
Experimental: as §1

Compound	selectivity (selectivity indices)
NCC(=O)Nc1ccc(-n2nc(C(F)(F)F)cc2-c2ccc3c(ccc4ccccc43)c2)cc1 [AR-12, reference compound]	around 20

Same assay, conditions: Salmonella enterica, RAW264.7, 22 h, Table 1; concentration at which intracellular susceptible S. Typhimurium burden is 50% in RAW 264.7 macrophages; 22 h treatment; read-out: IC50

IC50 [nM]	Compound
140	Fc1cccc(CN2CCC(Nc3ccc(-n4nc(C(F)(F)F)cc4C4CCCCC4)cc3)CC2)c1 [Compound 322]
100	N#Cc1ccc(CN2CCC(Nc3ccc(-n4nc(C(F)(F)F)cc4C4CCCCC4)cc3)CC2)cc1 [Compound 323]

Compound	IC50 [nM]
NCC(=O)Nc1ccc(-n2nc(C(F)(F)F)cc2-c2ccc3c(ccc4ccccc43)c2)cc1 [AR-12, reference compound]	420

Same assay, conditions: Salmonella enterica, RAW264.7, Table 2; intracellular burden 50% in RAW 264.7; read-out: Susc. IC50

IC50 [nM]	Compound
140	Fc1cccc(CN2CCC(Nc3ccc(-n4nc(C(F)(F)F)cc4C4CCCCC4)cc3)CC2)c1 [Compound 322]
100	N#Cc1ccc(CN2CCC(Nc3ccc(-n4nc(C(F)(F)F)cc4C4CCCCC4)cc3)CC2)cc1 [Compound 323]

Compound	IC50 [nM]
NCC(=O)Nc1ccc(-n2nc(C(F)(F)F)cc2-c2ccc3c(ccc4ccccc43)c2)cc1 [AR-12, reference compound]	400

Same assay, conditions: Table 1; LC50 / IC50, susceptible S. Typhimurium

Compound	Selectivity
NCC(=O)Nc1ccc(-n2nc(C(F)(F)F)cc2-c2ccc3c(ccc4ccccc43)c2)cc1 [AR-12, reference compound]	19.8
Fc1cccc(CN2CCC(Nc3ccc(-n4nc(C(F)(F)F)cc4C4CCCCC4)cc3)CC2)c1 [Compound 322]	324
N#Cc1ccc(CN2CCC(Nc3ccc(-n4nc(C(F)(F)F)cc4C4CCCCC4)cc3)CC2)cc1 [Compound 323]	333

Test system: planktonic susceptible S. Typhimurium (ATCC 700720)
Test: Direct effect on planktonic susceptible bacteria (optical density 600 nm)
Assay type: cell-based, Salmonella enterica serovar Typhimurium
Conditions: Salmonella enterica; Table 1; planktonic susceptible S. Typhimurium viability 50% by optical density, 22 hr; read-out: MIC50
Experimental: (§2) A single colony of susceptible or MDR bacteria was inoculated into nutrient broth and incubated overnight at 37°C in an orbital shaker set at 200 rpm. The overnight culture was sub-cultured (1:100) in fresh medium to obtain log-phase bacterial growth after an additional 3 hr incubation at 37°C and further adjusted to obtain a bacterial stock solution with an absorbance value of 0.6 at 600 nm, equivalent to a concentration of 3×10^8 CFU/mL. The bacterial stock was diluted with nutrient broth to obtain 3×10^4 CFU/well in a 96 well plate. Next, 10 μL of each analog were added to yield a total volume of 100 μL /well with a final concentration of 20 μM. Drug-free and bacteria-free wells were used as controls. The plate was incubated at 37°C for 22 hr. Percent bacterial viability was determined using optical density measurements at 600 nm, subtracting out bacteria free absorbance (background) and normalizing to a DMSO vehicle control. Bacterial viability was plotted against increasing drug concentration to obtain the 50% minimum inhibitory concentration (MIC50), defined as the drug concentration resulting in 50% bacterial viability.

MIC50 [µM]	Compound
> 20	Fc1cccc(CN2CCC(Nc3ccc(-n4nc(C(F)(F)F)cc4C4CCCCC4)cc3)CC2)c1 [Compound 322]
> 20	N#Cc1ccc(CN2CCC(Nc3ccc(-n4nc(C(F)(F)F)cc4C4CCCCC4)cc3)CC2)cc1 [Compound 323]

Compound	MIC50 [µM]
NCC(=O)Nc1ccc(-n2nc(C(F)(F)F)cc2-c2ccc3c(ccc4ccccc43)c2)cc1 [AR-12, reference compound]	> 20

Same assay, conditions: Salmonella enterica; Table 2; planktonic Salmonella, OD 600 nm; read-out: Susc. MIC50

MIC50 [µM]	Compound
> 20	Fc1cccc(CN2CCC(Nc3ccc(-n4nc(C(F)(F)F)cc4C4CCCCC4)cc3)CC2)c1 [Compound 322]
> 20	N#Cc1ccc(CN2CCC(Nc3ccc(-n4nc(C(F)(F)F)cc4C4CCCCC4)cc3)CC2)cc1 [Compound 323]

Compound	MIC50 [µM]
NCC(=O)Nc1ccc(-n2nc(C(F)(F)F)cc2-c2ccc3c(ccc4ccccc43)c2)cc1 [AR-12, reference compound]	> 20

Test system: not listed separately
Test: in vitro
Assay type: cell-based
Conditions: Table 1; RAW 264.7 viability reduced by 50%, MTT assay, 24 hr, 1–100 μM; read-out: LC50
Experimental: Cell proliferation and viability in the presence of the analogs was tested in the macrophage cell line RAW 264.7 using a 3-(4,5-dimethylthiazol-2-yl)-2,5-diphenyl-2H-tetrazolium bromide (MTT) assay. Cells were seeded at 3×10^4 cells/well in 96 well plates in DMEM (10% FBS, 1% pen/strep). […] DMSO vehicle was utilized as a control, as all the drugs were reconstituted from DMSO stocks. After 24 hr treatment, media was replaced with 100 μL of 0.6 mg/mL MTT solution and the cells were incubated at 37°C until formazan crystals formed. The MTT solution was then replaced with 100 μL of isopropanol, to dissolve the formazan crystals. Cell viability was determined by measuring absorbance at 560 nm of drug treated cells normalized to DMSO vehicle controls. The absorbance at 670 nm was used as a background correction. Cell viability was plotted against increasing drug concentration to obtain the 50% lethal concentration (LC50), defined as the drug concentration resulting in 50% cell viability.

Compound	CC50 at 24 h [nM]
NCC(=O)Nc1ccc(-n2nc(C(F)(F)F)cc2-c2ccc3c(ccc4ccccc43)c2)cc1 [AR-12, reference compound]	8000

Same assay, conditions: Table 2; RAW 264.7 viability 50%, colorimetric assay, extended up to 500 μM; read-out: LC50

Compound	CC50 at 24 h [nM]
NCC(=O)Nc1ccc(-n2nc(C(F)(F)F)cc2-c2ccc3c(ccc4ccccc43)c2)cc1 [AR-12, reference compound]	8300

Same assay, conditions: mouse, LC50

Compound	CC50 at 24 h [nM]
Fc1cccc(CN2CCC(Nc3ccc(-n4nc(C(F)(F)F)cc4C4CCCCC4)cc3)CC2)c1 [Compound 322]	43700
N#Cc1ccc(CN2CCC(Nc3ccc(-n4nc(C(F)(F)F)cc4C4CCCCC4)cc3)CC2)cc1 [Compound 323]	32000

Test system: planktonic MDR S. Typhimurium (ATCC 700408)
Test: Direct effect on planktonic MDR bacteria (optical density 600 nm)
Assay type: cell-based, Salmonella enterica serovar Typhimurium
Conditions: Salmonella enterica, Table 2, OD 600 nm
Experimental: as §2

MIC50 [µM]	Compound
> 20	Fc1cccc(CN2CCC(Nc3ccc(-n4nc(C(F)(F)F)cc4C4CCCCC4)cc3)CC2)c1 [Compound 322]
> 20	N#Cc1ccc(CN2CCC(Nc3ccc(-n4nc(C(F)(F)F)cc4C4CCCCC4)cc3)CC2)cc1 [Compound 323]

Compound	MIC50 [µM]
NCC(=O)Nc1ccc(-n2nc(C(F)(F)F)cc2-c2ccc3c(ccc4ccccc43)c2)cc1 [AR-12, reference compound]	> 20
